According to US11319331B2, “Probe for selective detection of hypochlorous acid (HOCl) under physiological condition, and related methods” (Council of Scientific & Industrial Research, priority 2017, dated 2022):

Columns and labels:
[1] = SF-1 10 μM, 2 mM HOCl, PBS-acetonitrile (9:1, v/v), pH 7.2, 37° C.
Procedure: Accordingly, all studies are carried out at physiological relevant pH […].
(§1) Unless and otherwise mentioned, 10 mM and pH 7.2 solution of aq. PBS buffer was used for all spectroscopic studies. All reactive Oxygen species and nitrogen species solutions of 1×10^-2 M were prepared in PBS having pH 7.2 and used with appropriate dilution. All luminescence measurements were done using λEx=550 nm with an emission slit width of 2/2 nm. For all biological studies, 0.6% DMSO in DMEM media was used.

[2] = Procedure: as §1
The detection limit was calculated based on the fluorescence titration.

RAW 264.7 cells = assay: MTT assay, in vitro cytotoxicity / cell viability; conditions: read-out: IC50 (MTT cell viability), treated 24 hours
[3] = S/N=3 where stated; cited from earlier work

Compound | time to completion of reaction with HOCl [1] | detection limit for HOCl ([2]; aq. PBS buffer-acetonitrile (9:1, v/v), 3 s method) | Detection Limit for HOCl (DL=K*Sb1/S, K=3) ([2]; slope 2.50×109, Sb1 3.59) | enhancement of luminescence intensity with increasing dose of HOCl ([2]; λEm Max 580 nm, λExt 540 nm) | IC50 (RAW 264.7 cells) | detection limit for HOCl/HClO (literature) [3]
E)-4-(2-(5,5-difluoro-1,7,9-trimethyl-10-phenyl-5H-5λ^4,6λ^4-dipyrrolo[1,2-c:2′,1′-f][1,3,2]diazaborinin-3-yl)vinyl)benzene-1,2-diol [SF-1] | ≤ 15 min | 4.3 nM | 4.3 nM | 20 fold | > 150 µM | 
CC1=CC(C)=[N+]2C1=C(CCc1[nH]c(C)cc1C)c1c(C)cc(C)n1[B-]2(F)F [BClO] |  |  |  |  |  | 0.56 nM
